Test results reported in patent publication US20250382268A1, “METHODS AND COMPOSITIONS FOR SELECTIVELY INHIBITING PATHOGENIC MICROBES” (priority 2019, published 2025).
≈ marks a conversion by molar mass, not a printed value. Like-named read-outs stand apart in the source and are kept apart here.

Columns and labels:
Francisella tularensis = test: microbe, parasite or virus in culture; type: cell-based; conditions: read-out: Francisella tularensis NR-577 MIC, strain NR-577
N. gonorrhoeae = test: microbe, parasite or virus in culture; type: cell-based; conditions: Neisseria gonorrhoeae, read-out: Neisseria gonorrhoeae WHO 914 MIC, strain WHO 914
HepG2 cells = test: Cytotoxicity MTT assay in HepG2 cells; type: cell-based; conditions: Homo sapiens
Description: Additionally, the antimicrobial compounds were analyzed for cytotoxicity. […] We utilized the standard MTT assay (Promega CellTiter 96) and GraphPad Prism 7 software to determine EC50 values for each analogue. Briefly, 20,000 HepG2 cells in 200 μl of the ATCC recommended media were seeded in each well of a 96-well plate with a moisture barrier created in the outermost wells. The cells were allowed to attach overnight at 37° C., and then observed under phase contrast microscopy for proper morphological characteristics. […] Once incubations were complete, the spectrophotometric absorbance of the samples was measured at a wavelength of 595 nm. […] For the HepaRG assay, NoSpin HepaRG™ cells (Lonza, cat #NSHPRG) were thawed and plated with 20,000 cells per well. They were allowed to attach for 4 h (optimal DME profile per Lonza's testing) before dosing following the identical protocol as above.

Staphylococcus aureus = test: microbe, parasite or virus in culture
S. aureus = test: SYTOX green cell permeability assay on S. aureus; type: cell-based, Staphylococcus aureus; conditions: concentrations relative to the MIC, FIG. 1A

| Compound | EC50 (HepG2 cells) | also measured |
| --- | --- | --- |
| Fc1ccc2[nH]cc(Cc3ccc(Br)cc3)c2c1 [Compound 174EB, 3-(4-bromobenzyl)-5-fluoro-1H-indole] |  | MIC (Francisella tularensis): 2 µg/mL (≈ 6.58 µM); MIC (N. gonorrhoeae): 8 µg/mL (≈ 26.3 µM) |
| Clc1ccc(Sc2c[nH]c3ccc(Br)cc23)cc1 [Compound 174J, 5-bromo-3-((4-chlorophenyl)thio)-1H-indole] | 25.3 µg/mL (≈ 74.7 µM) |  |
| Brc1cccc(Sc2c[nH]c3ccc(Br)cc23)c1 [Compound 174N, 5-bromo-3-((3-bromophenyl)thio)-1H-indole] | 29.5 µg/mL (≈ 77 µM) | MIC (Staphylococcus aureus; MRSA, read-out: Staphylococcus aureus MIC, MRSA strain HM-467): 3.13 µg/mL (≈ 8.17 µM); MIC (Staphylococcus aureus; MRSA, read-out: Staphylococcus aureus MIC, MRSA strain NK-41886): 3.13 µg/mL (≈ 8.17 µM); MIC (Staphylococcus aureus; MRSA, read-out: Staphylococcus aureus MIC, MRSA strain NR-13533): 3.13 µg/mL (≈ 8.17 µM); MIC (Staphylococcus aureus; MRSA, read-out: Staphylococcus aureus MIC, MRSA strain NR-28983): 3.13 µg/mL (≈ 8.17 µM); MIC (Staphylococcus aureus; MRSA, read-out: Staphylococcus aureus MIC, MRSA strain NR-41875): 3.13 µg/mL (≈ 8.17 µM); MIC (Staphylococcus aureus; MRSA, read-out: Staphylococcus aureus MIC, MRSA strain NR-41876): 3.13 µg/mL (≈ 8.17 µM); MIC (Staphylococcus aureus; MRSA, read-out: Staphylococcus aureus MIC, MRSA strain NR-41877): 3.13 µg/mL (≈ 8.17 µM); MIC (Staphylococcus aureus; MRSA, read-out: Staphylococcus aureus MIC, MRSA strain NR-41878): 3.13 µg/mL (≈ 8.17 µM); MIC (Staphylococcus aureus; read-out: Staphylococcus aureus MIC, VSSA NR-49121): 1.56 µg/mL (≈ 4.07 µM) |
| Fc1ccc(Sc2c[nH]c3ccc(Br)cc23)cc1 [Compound 174P, 5-bromo-3-((4-fluorophenyl)thio)-1H-indole] | 38.3 µg/mL (≈ 119 µM) |  |
| Clc1ccc(Sc2c[nH]c3ccc(Br)cc23)c(Cl)c1 [Compound 174V, 5-bromo-3-((2,4-dichlorophenyl)thio)-1H-indole] | 24.8 µg/mL (≈ 66.5 µM) |  |
| Nc1cc(Br)ccc1Sc1c[nH]c2ccc(Br)cc12 [Compound 174X, 5-bromo-2-((5-bromo-1H-indol-3-yl)thio)aniline] | 30.2 µg/mL (≈ 75.9 µM) |  |
| Oc1ccccc1Sc1c[nH]c2ccc(C(F)(F)F)cc12 [Compound 177A, 2-((5-(trifluoromethyl)-1H-indol-3-yl)thio)phenol] | 24.1 µg/mL (≈ 77.9 µM) |  |
| Oc1ccc(Sc2c[nH]c3ccc(C(F)(F)F)cc23)cc1 [Compound 177B, 4-((5-(trifluoromethyl)-1H-indol-3-yl)thio)phenol] | 27.7 µg/mL (≈ 89.6 µM) |  |
| Nc1ccccc1Sc1c[nH]c2ccc(C(F)(F)F)cc12 [Compound 177C, 2-((5-(trifluoromethyl)-1H-indol-3-yl)thio)aniline] | 48.2 µg/mL (≈ 156 µM) |  |
| Fc1ccccc1Sc1c[nH]c2ccc(C(F)(F)F)cc12 [Compound 177D, 3-((2-fluorophenyl)thio)-5-(trifluoromethyl)-1H-indole] | 27.1 µg/mL (≈ 87.1 µM) |  |
| Fc1ccc2[nH]cc(Sc3ccccc3Br)c2c1 [Compound 177E, 3-((2-bromophenyl)thio)-5-fluoro-1H-indole] | 31.6 µg/mL (≈ 98.1 µM) |  |
| FC(F)(F)c1ccc2[nH]cc(Sc3ccccc3C(F)(F)F)c2c1 [Compound 177F, 5-(trifluoromethyl)-3-((2-(trifluoromethyl)phenyl)thio)-1H-indole] | 29.8 µg/mL (≈ 82.5 µM) |  |
| CCc1ccccc1Sc1c[nH]c2ccc(C(F)(F)F)cc12 [Compound 177G, 3-((2-ethylphenyl)thio)-5-(trifluoromethyl)-1H-indole] | 29.5 µg/mL (≈ 91.8 µM) |  |
| OCc1[nH]c2ccc(Br)cc2c1Sc1ccccc1Br [Compound 177H, (5-bromo-3-((2-bromophenyl)thio)-1H-indol-2-yl)methanol] | 31.8 µg/mL (≈ 77 µM) |  |
| CCc1ccccc1Sc1c(CO)[nH]c2ccc(C(F)(F)F)cc12 [Compound 177I, (3-((2-ethylphenyl)thio)-5-(trifluoromethyl)-1H-indol-2-yl)methanol] | 31.3 µg/mL (≈ 89.1 µM) |  |
| c1ccc(Oc2c[nH]c3ccccc23)cc1 [Compound 925C, 3-phenoxy-1H-indole] |  | MIC (Francisella tularensis): 8 µg/mL (≈ 38.2 µM) |
| CC[C@H](C)[C@H](NC(=O)CN)C(=O)NCC(=O)N[C@@H](C)C(=O)N[C@H](C(=O)N[C@@H](CC(C)C)C(=O)N[C@@H](CCCCN)C(=O)N[C@H](C(=O)N[C@@H](CC(C)C)C(=O)N[C@H](C(=O)N[C@H](C(=O)NCC(=O)N[C@@H](CC(C)C)C(=O)N1CCC[C@H]1C(=O)N[C@@H](C)C(=O)N[C@@H](CC(C)C)C(=O)N[C@H](C(=O)N[C@@H](CO)C(=O)N[C@@H](Cc1c[nH]c2ccccc12)C(=O)N[C@H](C(=O)N[C@@H](CCCCN)C(=O)N[C@@H](CCCNC(=N)N)C(=O)N[C@@H](CCCCN)C(=O)N[C@@H](CCCNC(=N)N)C(=O)N[C@@H](CCC(N)=O)C(=O)N[C@@H](CCC(N)=O)C(N)=O)[C@@H](C)CC)[C@@H](C)CC)[C@@H](C)O)[C@@H](C)O)C(C)C)C(C)C [melittin, reference compound] |  | cell permeability by SYTOX green fluorescence (S. aureus): permeabilizes cells |
